Format in all cases: biochemical
Test [1] addresses T1, VAMT (vanillin aminotransferase; rVAMT) (Capsicum chinense, UniProt O82521).
T1 construct: full length, N-terminal His6-tag (pET28a) cut off by thrombin; recombinant from E. coli Rosetta2 (DE3)
As to the kind of experiment: HPLC assay of vanillylamine formation, Michaelis-Menten fit. As to conditions: 0.1 mM PLP, 50 mM potassium phosphate pH 8.0, standard assay 30 °C, ping-pong. The text has this: HPLC assay of vanillylamine formation, Michaelis-Menten fit on VAMT (vanillin aminotransferase; rVAMT)

Test [2] has as its target T1, VAMT (vanillin aminotransferase; rVAMT). As to the kind of experiment: HPLC assay of vanillin formation, Michaelis-Menten fit. As to conditions: 0.1 mM PLP, 50 mM potassium phosphate pH 8.0, standard assay 30 °C. The text has this:
HPLC assay of vanillin formation, Michaelis-Menten fit on VAMT (vanillin aminotransferase; rVAMT)

For test [3] the target is unchanged. Put plainly: HPLC assay of vanillin glucoside formation, Michaelis-Menten fit. As to conditions: 100 mM pyruvate as amino acceptor, 0.1 mM PLP, 50 mM potassium phosphate pH 8.0; standard assay 30 °C. The text has this: HPLC assay of vanillin glucoside formation, Michaelis-Menten fit on VAMT (vanillin aminotransferase; rVAMT)
The target is the same in test [4]. Put plainly: HPLC assay of vanillylamine glucoside formation, Michaelis-Menten fit. As to conditions: 100 mM GABA as amino donor, 0.1 mM PLP, 50 mM potassium phosphate pH 8.0; standard assay 30 °C. The text has this:
HPLC assay of vanillylamine glucoside formation, Michaelis-Menten fit on VAMT (vanillin aminotransferase; rVAMT)

T1 sequence (O82521 whole entry): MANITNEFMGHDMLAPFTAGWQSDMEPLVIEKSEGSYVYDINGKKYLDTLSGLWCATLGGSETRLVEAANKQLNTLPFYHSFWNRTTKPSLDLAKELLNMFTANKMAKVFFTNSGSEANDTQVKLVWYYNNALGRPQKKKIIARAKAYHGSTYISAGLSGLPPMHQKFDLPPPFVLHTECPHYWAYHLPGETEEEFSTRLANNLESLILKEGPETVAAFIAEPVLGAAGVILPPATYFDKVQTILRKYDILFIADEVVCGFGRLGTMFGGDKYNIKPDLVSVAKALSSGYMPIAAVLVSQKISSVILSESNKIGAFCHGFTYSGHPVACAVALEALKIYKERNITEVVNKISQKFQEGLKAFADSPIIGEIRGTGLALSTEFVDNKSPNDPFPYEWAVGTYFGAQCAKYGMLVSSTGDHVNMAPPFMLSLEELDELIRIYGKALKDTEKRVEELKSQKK

For `NCCCC(=O)O` [GABA], the Km in test [1] (5 mM vanillin as amino acceptor) came to 36 ± 2.1 mM.
Take `CC(=O)C(=O)O` [Na pyruvate]: in test [2] (5 mM vanillylamine as amino donor), the Km is 5.4 ± 0.34 mM.
On to `COc1cc(CN)ccc1O[C@@H]1O[C@H](CO)[C@@H](O)[C@H](O)[C@H]1O` [VAG], for which the Km in test [3] is 15 ± 4.8 mM.
As to `COc1cc(CN)ccc1O` [VA], the Km in test [2] (100 mM pyruvate as amino acceptor) worked out at 0.25 ± 0.037 mM.
As to `COc1cc(C=O)ccc1O[C@@H]1O[C@H](CO)[C@@H](O)[C@H](O)[C@H]1O` [VG], the Km in test [4] came to 3.3 ± 0.56 mM.
On to `COc1cc(C=O)ccc1O` [V], for which, in test [1] (100 mM GABA as amino donor), the Km was found to be 0.48 ± 0.049 mM.

The values above are taken from publication PMC10987797, “Functional characterization of Capsicum chinense vanillin aminotransferase: Detection of vanillylamine-forming activity from vanillin” (Biochemistry and Biophysics Reports, 2024).
